According to patent US12414968B2, “Compositions comprising bacterially derived minicells and methods of using the same” (EnGeneIC Molecular Delivery Pty Ltd, priority 2018, dated 2025):

Assays:
MiaPaca-2 cells = test: MTS cell proliferation assay, MiaPaca-2; assay type: cell-based, human; details: 72 hrs
human STING alleles = details: Corrales et al., 2015, Fu et al.; cited from earlier work
[1] = tested on: human peripheral blood monocytes (PBMCs); details: multiple donors with different STING genotypes; cited from earlier work
[2] = tested on: human breast cancer cell line MDA-MB-468; test: MTS cell proliferation assay, MDA-MB-468; assay type: cell-based; details: 72 hrs
[3] = tested on: human colorectal cancer cell lines Caco-2 and HCT116; test: MTS cell proliferation assay, Caco-2 and HCT116; assay type: cell-based; details: 72 hrs
[4] = tested on: Glioblastoma cell line U87-MG; test: MTS cell proliferation assay, U87-MG; assay type: cell-based; details: 72 hrs
[5] = tested on: bone marrow derived dendritic cells (BMDC) with CT26Ep12.1 cells; test: BMDC / treated CT26Ep12.1 co-culture; assay type: cell-based, mouse; details: 48 h co-incubation
Method: The effect of tumor cell death in response to Ep-EDV, Ep-EDV-682, and 682 treatment on dendritic cell maturation was also examined (FIGS. 27E-27I). Bone marrow derived dendritic cells (BMDC) were co-incubated with treated tumor cells (4T1 and CT26Ep12.1) for 48 h, followed by assessment of the production of the type 1 interferons IFNα and IFNβ. Increases in type 1 interferon production by dendritic cells is well established as a mechanism of dendritic cell maturation and enhanced antigen presentation as well as being vital for their interaction with other immune cell subsets including NK cells and T-cells (Fitzgerald-Bocarsly and Feng, 2007; Simmons et al., 2012).
Bone Marrow Derived DCs (BMDC): Bone marrow was isolated from the femurs and tibias of Balb/c mice. […]
Macrophage and DC/Tumor Cell Co-cultures: CT26Ep12.1 and 4T1 cells were harvested with Versene (Gibco) and cells were collected in 1 mL Eppendorf tubes. […] RAW264.7/tumor cell co-cultures were collected using a cell scraper and samples were stained with DAPI (Sigma), anti-CD45 Brilliant Violet 510 (BioLegend), anti-CD86 APC-Cy7, and anti-CD206 AF488 and assessed by flow cytometry. […] RNA concentration was determined on an Eppendorf biophotometer plus. […] Data was exported to excel and the relative quantitation was calculated from the ΔΔCt.

[6] = tested on: Adreno-cortical cancer cell lines ACC01 and ACC07; test: MTS cell proliferation assay, ACC01 and ACC07; details: 72 hrs, lines derived from Stage IV patients
Method: All cells were incubated for a further 72 hrs followed by the colorimetric MTS cell proliferation assay (Cory et al., Cancer Commun., 3(7): 207-12 (1991)) using the CellTiter 96 AQueous One Solution Cell Proliferation Assay (Promega Corp., Madison, Wis., USA), according to the manufacturer's instructions. The colorimetric measurements were read at 490 nm.

MiaPaca-2 GemR cells = test: MTS cell proliferation assay, MiaPaca-2 GemR; assay type: cell-based, human; details: 72 hrs
[7] = tested on: A549 (lung cancer) xenografts; test: A549 xenograft, EDVsDox with IFN-γ (FIG. 20); assay type: in vivo, Balb/c nu/nu mice; details: i.v. tail vein; IFN-γ 0.5 × 10^4 IU per dose
Text: (§1) Lung cancer: To study the anti-tumor effects of combining ^EGFREDVsDox and IFN-γ (type II IFN) in a lung cancer model, A549 (lung cancer) xenografts in Balb/c nu/nu mice were established and divided into four groups receiving different treatment combinations by intravenous tail vein injection. Group 1 received sterile physiological saline (FIG. 20, open diamonds). Group 2 received IFN-γ (0.5×10^4 IU) per dose (FIG. 20, solid triangles). Group 3 received ^EGFREDVsDox (FIG. 20, solid squares). Group 4 received ^EGFREDVsDox and IFN-γ (0.5×10^4 IU) per dose (FIG. 20, solid circles).

MDA-MB 468 xenografts = test: MDA-MB 468 breast cancer xenograft, EDVsDox with IFN-γ (FIGS. 21, 22); assay type: in vivo, Balb/c nu/nu mice; details: IFN-γ 0.5 × 10^4 IU per dose
Text: as §1, with “Breast” for “Lung”, “IFN-γ” for “IFN-γ (type II IFN)”, “breast” for “lung”, “MDA-MB 468” for “A549 (lung cancer)”, “21,” for “20,”

Question: With `O=c1[nH]cc(F)c(=O)[nH]1` [5-Fluoro Uracil (5-FU), 5-Fluoro Uracil] as the molecule, how does the “inhibition of proliferation / resistance of the cells” value (MiaPaca-2 cells) read?
Answer: resistant

Question: Which “activation of human STING alleles” value (human STING alleles) does the source give for `Nc1ncnc2c1ncn2[C@@H]1O[C@@H]2COP(O)(=S)O[C@@H]3C(O)[C@@H](COP(O)(=S)O[C@H]2[C@H]1O)O[C@H]3n1cnc2c(N)ncnc21` (stereo partly drawn) [ML RR-S2 CDA] here?
Answer: broadly activate all known human STING alleles

Question: And the “expression of IFN-β” value [1]?
Answer: dose-dependent expression of IFN-β

Question: With `CC(=O)O[C@@]12CO[C@@H]1C[C@H](O)[C@@]1(C)C(=O)[C@H](O)C3=C(C)[C@@H](OC(=O)[C@H](O)[C@@H](NC(=O)OC(C)(C)C)c4ccccc4)C[C@@](O)([C@@H](OC(=O)c4ccccc4)[C@H]21)C3(C)C` [docetaxel] as the molecule, how does the “inhibition of proliferation / resistance of the cell line” value [2] read?
Answer: resistant

Question: What does the source list for `COc1cccc2c1C(=O)c1c(O)c3c(c(O)c1C2=O)C[C@@](O)(C(=O)CO)C[C@@H]3O[C@H]1C[C@H](N)[C@H](O)[C@H](C)O1` [doxorubicin]?
Answer: inhibition of proliferation / resistance of the cell line [2]: resistant; inhibition of proliferation / resistance of the cell lines [3]: resistant; inhibition of proliferation / resistance of the cell line [4]: resistant; inhibition of proliferation / resistance of the cells (MiaPaca-2 cells): resistant; increase in IFNβ mRNA production [5]: ~5 fold; cytotoxic effect / resistance of the cell lines [6]: highly resistant

Question: For `COC(=O)c1cc2c([nH]1)C(=O)C=C1N(C(=O)c3cc4cc(OC)c(OC)c(OC)c4[nH]3)C[C@H]3C[C@]123` [duocarmycin], which “cytotoxic effect / resistance of the cell lines” value (from here on “cytotoxic effect / resistance”) [6] is on record?
Answer: potent cytotoxic effects

Question: With `Nc1ccn([C@@H]2O[C@H](CO)[C@@H](O)C2(F)F)c(=O)n1` [gemzar] as the molecule, how does the “inhibition of proliferation / resistance of the cells” value (MiaPaca-2 cells) read?
Answer: resistant

Question: And the “inhibition of proliferation / resistance of the cells” value (MiaPaca-2 GemR cells)?
Answer: resistant

Question: For `CCc1c2c(nc3ccc(OC(=O)N4CCC(N5CCCCC5)CC4)cc13)-c1cc3c(c(=O)n1C2)COC(=O)[C@]3(O)CC` [irinotecan], which “inhibition of proliferation / resistance of the cells” value (MiaPaca-2 cells) is on record?
Answer: resistant

Question: For `CN(Cc1cnc2nc(N)nc(N)c2n1)c1ccc(C(=O)N[C@@H](CCC(=O)O)C(=O)O)cc1` [mathotrxate], which “inhibition of proliferation / resistance of the cells” value (MiaPaca-2 cells) is on record?
Answer: resistant

Question: With `Clc1ccc(C(c2ccccc2Cl)C(Cl)Cl)cc1` (stereo not drawn) [mitotane] as the molecule, how does the “cytotoxic effect / resistance” value [6] read?
Answer: highly resistant

Question: With `O=C1c2c(O)ccc(O)c2C(=O)c2c(NCCNCCO)ccc(NCCNCCO)c21` [mitoxantrone] as the molecule, how does the “cytotoxic effect / resistance” value [6] read?
Answer: highly resistant

Question: Which “inhibition of proliferation / resistance of the cells” value (MiaPaca-2 cells) does the source give for `O=C1[O][Pt]2([NH][C@@H]3CCCC[C@H]3[NH]2)[O]C1=O` [oxaliplatin] here?
Answer: resistant

Question: For `CC(=O)O[C@H]1C(=O)[C@@]2(C)[C@H]([C@H](OC(=O)c3ccccc3)[C@]3(O)C[C@H](OC(=O)[C@H](O)[C@@H](NC(=O)c4ccccc4)c4ccccc4)C(C)=C1C3(C)C)[C@]1(OC(C)=O)CO[C@@H]1C[C@@H]2O` [paclitaxel IVAX, paclitaxel], which “inhibition of proliferation / resistance of the cell line” value [4] is on record?
Answer: resistant

Question: Which “inhibition of proliferation / resistance of the cell line” value [2] does the source give for `CC(=O)O[C@H]1C(=O)[C@@]2(C)[C@H]([C@H](OC(=O)c3ccccc3)[C@]3(O)C[C@H](OC(=O)[C@H](O)[C@@H](NC(=O)c4ccccc4)c4ccccc4)C(C)=C1C3(C)C)[C@]1(OC(C)=O)CO[C@@H]1C[C@@H]2O` [paclitaxel] here?
Answer: resistant

Question: What about the “cytotoxic effect / resistance” value [6] of the same molecule?
Answer: highly resistant

B1: IFN-γ: type II interferon, given free at 0.5 or 0.75 × 10^4 IU per dose (protein, UniProt P01580 23-155, looked up)
Interferon gamma: HGTVIESLESLNNYFNSSGIDVEEKSLFLDIWRNWQKDGDMKILQSQIISFYLRLFEVLKDNQAISNNISVIESHLITTFFSNSKAKKDAFMSIAKFEVNNPQVQRQAFNELIRVVHQLLPESSLRKRKRSRC
Question: For B1, which “Results: anti-tumor efficacy” value [7] is on record?
Answer: no anti-tumor efficacy

Question: What about the “Results: anti-tumor efficacy, Exp. #2 (FIG. 22)” value (MDA-MB 468 xenografts; listed as IFN-) of the same molecule?
Answer: no anti-tumor efficacy

Question: What about the “Results: anti-tumor efficacy, Exp. #1 (FIG. 21)” value (MDA-MB 468 xenografts; i.v. tail vein) of the same molecule?
Answer: no anti-tumor efficacy
